Patent US9896458B2, “Compounds, compositions and methods” (Denali Therapeutics Inc., priority 0216, dated 2018)
Where two headings read alike, the source gives them in different places.

Legend:
[1] = Metabolic stability (hepatocytes); assay type: in vitro ADME; conditions: human cryopreserved hepatocytes, well-stirred model
Description: Hepatic clearance is expressed as mL/min/kg.

[2] = in vivo
Description: (§1) The protein binding in plasma was determined using a Rapid Equilibrium Dialysis Device (Thermo Scientific RED Device) or 96-well dialyzer apparatus (HTDialysis LLC). […] If required, plasma samples were pre-incubated (2 hours at 37° C.) with diisopropyl fluorophosphate (DFP) at the final concentration of 100 μM to prevent compound degradation due to amide hydrolysis. Appropriate volumes of spiked samples along with blank phosphate buffer were added to either device and incubated at 37° C. for a total of 5 hours with agitation at 500 rpm. Following incubation, an equal aliquot of dialysed matrix (plasma or buffer) is added to an equal volume of the opposite blank matrix such that the volume of buffer to plasma are equal. Mixed matrix samples were extracted by protein precipitation using acetonitrile containing the appropriate IS. Samples were then centrifuged for 10 min at 2800 rpm. Supernatants were collected and diluted and then injected on to an HPLC-MS/MS or UPLC-MS/MS system. Samples were analyzed by monitoring the appropriate parent/daughter ion transitions for the test and control compounds. The peak area ratios were used to measure test item concentrations. The fraction unbound (Afu) was determined as the ratio of the peak area ratio in buffer divided by the peak area ratio in plasma.
(§2) The PK properties of test articles were determined in male Sprague-Dawley Crl:CD(SD) rats, male Beagle dogs and male cynomolgus monkeys. Studies were conducted to the highest standards of animal welfare in accordance with national legislation and under approval of the internal animal care and use committees.
(§3) Compounds were administered by IV bolus to animals following an overnight fast. […] The formulations were administered at dose volumes ranging from 0.5-2 mL/kg. The IV dose ranged from 0.5-1 mg/kg.
(§4) Following dose administration, 8-9 serial blood samples were collected over 24 hours. Samples were mixed with anticoagulant and placed on wet ice prior to processing. Plasma was harvested following centrifugation, extracted using protein precipitation with acetonitrile containing IS. The processed supernatant was analyzed using UPLC or LC-MS/MS using specific parent/daughter ion pairs for the test article and IS. Plasma concentrations were determined using a calibration curve prepared using known concentrations of analyte. Pharmacokinetic parameters utilizing measured concentrations were calculated using Phoenix WinNonlin. The unbound plasma clearance was calculated as the ratio of the total body clearance divided by the fraction unbound in plasma.

[3] = tested on: TNF/zVAD induced temperature loss; conditions: dose of 30 mg/kg, from WO 2014/125444 Table 2; cited from earlier work
[4] = in vivo; remark: listed apart in the source
Description: as §1
The PK properties of test articles were determined in male Sprague-Dawley Crl:CD(SD) rats, male Beagle dogs and male cynomolgus monkeys. […]
Following dose administration, 8-9 serial blood samples were collected over 24 hours. […] The processed supernatant was analyzed using UPLC or LC-MS/MS using specific parent/daughter ion pairs for the test article and IS. Plasma concentrations were determined using a calibration curve prepared using known concentrations of analyte. Pharmacokinetic parameters utilizing measured concentrations were calculated using Phoenix WinNonlin. The unbound plasma clearance was calculated as the ratio of the total body clearance divided by the fraction unbound in plasma.

[5] = cynomolgus monkey, in vivo
Description: as §1, §2, §3, §4

[6] = tested on: TNF/zVAD induced temperature loss; assay: TNF-driven systemic inflammatory response syndrome model (TNF/zVAD); assay type: in vivo; conditions: mice, 5 mg/kg oral, 15 minutes before intravenous TNF/zVAD
Description: The in vivo efficacy of compounds can be determined in mice using a TNF-driven systemic inflammatory response syndrome model as described by Duprez et. al. (2011, Immunity 35(6), 908-918) and Berger et. al. (2015, Cell Death Disc. 1, 15009). In this model system TNF/zVAD (tumor necrosis factor/Z-Val-Ala-DL-Asp-fluoromethylketone, a caspase inhibitor) treatment results in temperature loss and the production of several inflammatory cytokines. The ability of a test compound to inhibit these inflammatory effects can be measured in this model by dosing mice with test compound 15 minutes before administration of TNF/zVAD and measuring the inflammatory response. The dose required to inhibit the inflammatory response is a measure of the compounds efficacy at that dose. Using this model, Compound 42 was orally pre-dosed at 5 mg/kg 15 minutes before intraveneous administration of TNF/zVAD and temperature loss in the mice was measured by an implanted temperature chip. […] The decrease in dosing has a number of important potential advantages, including requiring less frequent administration to a patient, increased patient compliance, and improved safety profile such as lower toxicities while achieving similar efficacy.

[7] = tested on: FADD-deficient Jurkat cells; assay: cellular necroptosis assay (human TNFα induced); assay type: cell-based; conditions: 48 h, human TNFα 10 ng/mL, viability after 48 h, CellTiter-Glo, read-out: Cell IC50
[8] = male, Sprague-Dawley Crl:CD(SD)

With CN1C(=O)[C@@H](NC(=O)c2cc(C3(c4ccccc4)CC3)on2)COc2cccnc21 [Example 77, (S)-N-(5-methyl-4-oxo-2,3,4,5-tetrahydropyrido[3,2-b][1,4]oxazepin-3-yl)-5-(1-phenylchclopropyl)isoxazole-3-carboxamide] the “Human hepatocyte CLhep Avg” value [1] was 19 mL/min/kg.

For CN1C(=O)[C@@H](NC(=O)c2nnc(Cc3ccccc3)[nH]2)COc2ccccc21 [A, reference compound], the “Rat unbound CL” value [2, 8] is listed as 77 mL/min/kg, the “Human hepatocyte CLhep Avg” value [1] is listed as 6.8 mL/min/kg and the “inhibition of temperature loss” value [3] is listed as 93%. For the same molecule, the “Dog unbound CL” value ([4]; male, Beagle) was 240 mL/min/kg.

In the case of CN1C(=O)[C@@H](NC(=O)c2nnc(Cc3ccccc3)o2)COc2ccccc21 [B, reference compound], the “Human hepatocyte CLhep Avg” value [1] is reported as 14 mL/min/kg.

For CN1C(=O)[C@@H](NC(=O)c2nnc(Cc3ccccc3)o2)[C@H]2C[C@H]2c2nccnc21 [Example 177A], the “Rat unbound CL” value [2] was 55 mL/min/kg and the “Cyno unbound CL” value [5] was 58 mL/min/kg.

For CN1C(=O)[C@@H](NC(=O)c2cc(C3(c4ccccc4)CC3)on2)COc2ccccc21 [Example 8, (S)-N-(5-methyl-4-oxo-2,3,4,5-tetrahydrobenzo[b][1,4]oxazepin-3-yl)-5-(1-phenylcyclopropyl)isoxazole-3-carboxamide], the “Rat unbound CL” value [2, 8] was 3700 mL/min/kg.

With CN1C(=O)[C@@H](NC(=O)c2nnc(Cc3ccccc3)[nH]2)[C@H]2C[C@H]2c2cccnc21 [Example 75A, 5-benzyl-N-((1aS,2S,8bR)-4-methyl-3-oxo-1,1a,2,3,4,8b-hexahydrocyclopropa[d]pyrido[2,3-b]azepin-2-yl)-4H-1,2,4-triazole-3-carboxamide] the “Rat unbound CL” value [2, 8] was 91 mL/min/kg, the “Human hepatocyte CLhep Avg” value [1] was 9.1 mL/min/kg and the “Cyno unbound CL” value ([5]; male) was 93 mL/min/kg.

For CN1C(=O)[C@@H](NC(=O)c2cc(Cc3ccccc3)on2)COc2ccccc21 [C, reference compound], the “Human hepatocyte CLhep Avg” value [1] was 19 mL/min/kg.

For CN1C(=O)[C@@H](NC(=O)c2nnc(Cc3ccccc3)[nH]2)COc2cccnc21 [Example 42, (S)-5-benzyl-N-(5-methyl-4-oxo-2,3,4,5-tetrahydropyrido[3,2-b][1,4]pxazepin-3-yl)-4H-1,2,4-triazole-3-carboxamide], the “Human hepatocyte CLhep Avg” value [1] was 0.8 mL/min/kg and the “inhibition of temperature loss” value [6] was 96%.

In the case of CN1C(=O)[C@@H](NC(=O)c2ncn(Cc3cccc(C#N)c3)n2)COc2cccnc21 [Example 171, (S)-1-(3-cyanobenzyl)-N-(5-methyl-4-oxo-2,3,4,5-tetrahydropyrido[3,2-b][1,4]oxazepin-3-yl)-1H-1,2,4-triazole-3-carboxamide], the “Rat unbound CL” value [2, 8] is reported as 32 mL/min/kg.

In the case of CN1C(=O)[C@@H](NC(=O)c2nc(Cc3ccccc3)n[nH]2)COc2cccnc21 [Example 42], the “Rat unbound CL” value [2] is reported as 22 mL/min/kg, the “Cyno unbound CL” value [5] is reported as 42 mL/min/kg and the “Dog unbound CL” value [4] is reported as 64 mL/min/kg.

With C[C@H]1Oc2cccnc2N(C)C(=O)[C@H]1NC(=O)c1nnc(Cc2ccccc2)o1 [Example 134, 5-Benzyl-N-((2R,3S)-2,5-dimethyl-4-oxo-2,3,4,5-tetrahydropyrido[3,2-b][1,4]oxazepin-3-yl)-1,3,4-oxadiazole-2-carboxamide] the “Rat unbound CL” value [2, 8] was 100 mL/min/kg and the “Cyno unbound CL” value ([5]; male) was 140 mL/min/kg.

In the case of CN1C(=O)[C@@H](NC(=O)c2nnc(C3(c4ccccc4)CC3)o2)COc2cccnc21 [Example 66, (S)-N-(5-methyl-4-oxo-2,3,4,5-tetrahydropyrido[3,2-b][1,4]oxazepin-3-yl)-5-(1-phenylcyclopropyl)-1,3,4-oxadiazole-2-carboxamide], the “Human hepatocyte CLhep Avg” value [1] is reported as 6.3 mL/min/kg and the “Dog unbound CL” value ([4]; male, Beagle) is reported as 36 mL/min/kg.

In the case of C[C@H]1Oc2cccnc2N(C)C(=O)[C@H]1NC(=O)c1ncn(Cc2cccc(C#N)c2)n1 [Example 172], the “Rat unbound CL” value [2] is reported as 65 mL/min/kg.

Work on CN1C(=O)[C@@H](NC(=O)c2cn(Cc3ccccc3)nn2)[C@H]2C[C@H]2c2nccnc21 [Example 195, 1-benzyl-N-((7S,7aS,8aR)-5-methyl-6-oxo-5,6,7,7a,8,8a-hexahydrocyclopropa[d]pyrazino[2,3-b]azepin-7-yl)-1H-1,2,3-triazole-4-carboxamide] yielded an IC50 [7] of 16 nM.

In the case of C[C@H]1Oc2cccnc2N(C)C(=O)[C@H]1NC(=O)c1nn(Cc2ccccc2)cc1F [Example 92, 1-benzyl-N-((2R,3S)-2,5-dimethyl-4-oxo-2,3,4,5-tetrahydropyrido[3,2-b][1,4]oxazepin-3-yl)-4-fluoro-1H-pyrazole-3-carboxamide], the “Rat unbound CL” value [2, 8] is reported as 420 mL/min/kg.

In the case of O=C(N[C@@H]1C(=O)Nc2c(F)cc(F)cc2[C@@H]2C[C@H]12)c1nnc(Cc2ccccc2)[nH]1 [Example 83A, 5-benzyl-N-((1aS,2S,8bR)-5,7-difluoro-3-oxo-1,1a,2,3,4,8b-hexahydrobenzo[b]cyclopropa[d]azepin-2-yl)-4H-1,2,4-triazole-3-carboxamide], the “Human hepatocyte CLhep Avg” value [1] is reported as 1.0 mL/min/kg and the “Cyno unbound CL” value ([5]; male) is reported as 82 mL/min/kg.

Molecule O=C(N[C@H]1COc2ccccc2-n2ccnc21)c1cc(Cc2ccccc2)on1 [Example 70A, (R)-5-benzyl-N-(4,5-dihydrobenzo[b]imidazo[1,2-d][1,4]oxazepin-4-yl)isoxazole-3-carboxamide] has an IC50 [7] of 0.1 to 1000 nM.

In the case of C[C@H]1Oc2cccnc2N(C)C(=O)[C@H]1NC(=O)c1nnc(Cc2ccccc2)[nH]1 [Example 94, 5-benzyl-N-((2R,3S)-2,5-dimethyl-4-oxo-2,3,4,5-tetrahydropyrido[3,2-b][1,4]oxazepin-3-yl)-4H-1,2,4-triazole-3-carboxamide], the “Rat unbound CL” value [2, 8] is reported as 44 mL/min/kg and the “Cyno unbound CL” value ([5]; male) is reported as 40 mL/min/kg.

In the case of CN1C(=O)[C@@H](NC(=O)c2nnc(Cc3ccccc3)o2)COc2cccnc21 [Example 146, (S)-5-benzyl-N-(5-methyl-4-oxo-2,3,4,5-tetrahydropyrido[3,2-b][1,4]oxazepin-3-yl)-1,3,4-oxadiazole-2-carboxamide], the “Rat unbound CL” value [2, 8] is reported as 61 mL/min/kg and the “Cyno unbound CL” value ([5]; male) is reported as 39 mL/min/kg.
